What was measured:
Format in all cases: in vivo
Alopecurus [1] = experiment: Pre-emergence test, greenhouse; conditions: after three weeks
Method: (§1) • Solvent: 5 parts by weight of acetone • Emulsifier: 1 part by weight of alkylaryl polyglycol ether
(§2) To produce a suitable preparation of active compound, 1 part by weight of active compound is mixed to the stated amount of solvent, the stated amount of emulsifier is added and the concentrate is diluted with water to the desired concentration.
(§3) Seeds of the test plants are sown in normal soil. After about 24 hours, the soil is sprayed with the preparation of active compounds such that the particular amounts of active compound desired are applied per unit area. The concentration of the spray liquor is chosen such that the particular amounts of active compound desired are applied in 1 000 l of water/ha.
(§4) After three weeks, the degree of damage to the plants is rated in % damage in comparison to the development of the untreated control.
(§5) The figures denote: • 0%=no effect (like untreated control) • 100%=total destruction

Amaranthus [2] = experiment: Pre-emergence test, greenhouse; conditions: 500 g/ha, after three weeks
Method: as §1, §2, §3, §4, §5

Galium = experiment: Pre-emergence test, greenhouse; conditions: 500 g/ha, after three weeks
Method: as §1, §2, §3, §4, §5

Alopecurus [3] = experiment: Post-emergence test, greenhouse; conditions: 2 000 g/ha, after three weeks
Method: as §1
(§6) To produce a suitable preparation of active compound, 1 part by weight of active compound is mixed with the stated amount of solvent, the stated amount of emulsifier is added and the concentrate is diluted with water to the desired concentration.
(§7) Test plants of a height of 5-15 cm are sprayed with the preparation of active compound such that the particular amounts of active compound desired are applied per unit area. The concentration of the spray liquor was chosen such that the particular amounts of active compound desired are applied in 1 000 l of water/ha.
as §4, §5

Sugar beet = experiment: Post-emergence test, greenhouse; conditions: after three weeks
Method: as §1, §6, §7, §4, §5

Amaranthus [4] = experiment: Post-emergence test, greenhouse; conditions: after three weeks
Method: as §1, §6, §7, §4, §5

Echinochloa [5] = experiment: Post-emergence test, greenhouse; conditions: after three weeks
Method: as §1, §6, §7, §4, §5

Setaria [6] = experiment: Post-emergence test, greenhouse; conditions: after three weeks
Method: as §1, §6, §7, §4, §5

Digitaria = experiment: Pre-emergence test, greenhouse; conditions: 250 g/ha, after three weeks
Method: as §1, §2, §3, §4, §5

Lolium = experiment: Pre-emergence test, greenhouse; conditions: 250 g/ha, after three weeks
Method: as §1, §2, §3, §4, §5

Soya = experiment: Pre-emergence test, greenhouse; conditions: 250 g/ha, after three weeks
Method: as §1, §2, §3, §4, §5

Echinochloa [7] = experiment: Pre-emergence test, greenhouse; conditions: after three weeks
Method: as §1, §2, §3, §4, §5

Setaria [8] = experiment: Pre-emergence test, greenhouse; conditions: after three weeks
Method: as §1, §2, §3, §4, §5

Wheat = experiment: Pre-emergence test, greenhouse; conditions: 250 g/ha, after three weeks
Method: as §1, §2, §3, §4, §5

Tetranychus urticae = experiment: Tetranychus test (OP-resistent/dip treatment); conditions: 100 ppm active compound; after 7 days; bean plants dipped
Method: Tetranychus Test (OP-Resistent/Dip Treatment)
• Solvent: 30 parts by weight of dimethylformamide • Emulsifier: 1 part by weight of alkylaryl polyglycol ether
To produce a suitable preparation of active compound, 1 part by weight of active compound is mixed with the stated amounts of solvent and emulsifier, and the concentrate is diluted with emulsifier-containing water to the desired concentration.
Bean plants (Phaseolus vulgaris) which are heavily infested by all stages of the greenhouse […] spider mite (Tetranychus urticae) are treated by being dipped into a preparation of active compound of the desired concentration.
After the desired period of time, the effect in % is determined. 100% means that all spider mites have been killed; 0% means that none of the spider mites have been killed.

Meloidogyne incognita = experiment: Meloidogyne test; conditions: 20 ppm active compound; after 14 days; lettuce
Method: Meloidogyne Test • Solvent: 30 parts by weight of dimethylformamide • Emulsifier: 1 part by weight of alkylaryl polyglycol ether To produce a suitable preparation of active compound, 1 part by weight of active compound is mixed with the stated amounts of solvent and emulsifier, and the concentrate is diluted with water to the desired concentration. Containers are filled with sand, solution of active compound, Meloidogyne incognita egg/larvae suspension and lettuce seeds. The lettuce seeds germinate and the plants develop. On the roots, galls are formed. After the desired period of time, the nematicidal action in % is determined using the formation of galls as a measure. 100% means that no galls have been found; 0% means that the number of galls on the treated plants corresponds to that on the untreated control.

Avena fatua [9] = experiment: Post-emergence test, greenhouse; conditions: 2 000 g/ha, after three weeks
Method: as §1, §6, §7, §4, §5

Avena fatua [10] = experiment: Pre-emergence test, greenhouse; conditions: 2 000 g/ha, after three weeks
Method: as §1, §2, §3, §4, §5

Cc1cc(Cl)cc(Cl)c1C1=C(O)CC(C)(C)NC1=O [I-a-3]
% damage Alopecurus (Alopecurus [1]; 500 g/ha): 70%
% damage Amaranthus (Amaranthus [2]): 70%
% damage Galium (Galium): 100%

Cc1cc(Br)cc(Cl)c1C1=C(O)CC(C)(C)NC1=O [I-a-10]
% damage Alopecurus (Alopecurus [3]): 70%
% damage Sugar beet (Sugar beet; 2 000 g/ha): 0%
% damage Amaranthus (Amaranthus [4]; 2 000 g/ha): 70%
% damage Echinochloa (Echinochloa [5]; 2 000 g/ha): 80%
% damage Setaria (Setaria [6]; 2 000 g/ha): 80%
% damage Digitaria (Digitaria): 90%
% damage Lolium (Lolium): 100%
% damage Soya (Soya): 0%
% damage Echinochloa (Echinochloa [7]; 250 g/ha): 80%
% damage Setaria (Setaria [8]; 250 g/ha): 95%
% damage Wheat (Wheat): 0%

Cc1ccc(-c2ccc(Cl)cc2)cc1C1=C(O)CC(C)(C)NC1=O [I-a-5]
kill of spider mites (Tetranychus urticae): 99%

Cc1ccc(Br)cc1C1=C(O)CC(C)(C)NC1=O [I-a-4]
kill (nematicidal action, formation of galls as measure) (Meloidogyne incognita): 95%

CCOC(=O)OC1=C(c2cc(-c3ccc(Cl)cc3)ccc2C)C(=O)NC(C)(C)C1 [I-c-1]
kill of spider mites (Tetranychus urticae): 95%
% damage Sugar beet (Sugar beet; 250 g/ha): 0%
% damage Amaranthus (Amaranthus [4]; 250 g/ha): 80%
% damage Echinochloa (Echinochloa [5]; 250 g/ha): 70%
% damage Setaria (Setaria [6]; 250 g/ha): 80%

CCc1cc(Br)cc(Cl)c1C1=C(O)CC(C)(C)NC1=O [I-a-11]
% damage Alopecurus (Alopecurus [3]): 95%
% damage Sugar beet (Sugar beet; 2 000 g/ha): 90%
% damage Avena fatua (Avena fatua [9]): 100%
% damage Echinochloa (Echinochloa [5]; 2 000 g/ha): 100%
% damage Setaria (Setaria [6]; 2 000 g/ha): 100%
% damage Alopecurus (Alopecurus [1]; 2 000 g/ha): 100%
% damage Avena fatua (Avena fatua [10]): 100%
% damage Echinochloa (Echinochloa [7]; 2 000 g/ha): 100%
% damage Setaria (Setaria [8]; 2 000 g/ha): 100%
